PubChem BioAssay (NCI)
Values joined by “and” are separate entries in the source; they are usually repeats but may differ in a detail not shown here. Equal values may be shown once.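 Exposure lasted 48 hours, with cells grown in 96-well plates and compounds tested at five concentrations. GI50 = concentration required for 50% inhibition of growth. TGI: total growth inhibition.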

How the values were obtained:
Test in all cases: growth of human tumour cells (NCI), 48 h
[1] = tested on: CAKI-1 renal
[2] = tested on: HL-60(TB) leukemia
[3] = tested on: MDA-MB-435
[4] = tested on: OVCAR-4 ovarian
[5] = tested on: OVCAR-5 ovarian
[6] = tested on: PC-3 prostate
[7] = tested on: RPMI-8226 leukemia
[8] = tested on: SF-295 CNS
[9] = tested on: SK-OV-3 ovarian
[10] = tested on: SNB-19 CNS

COc1cccc(-n2cc(-c3nc(Nc4cc(C)[nH]n4)c4ccccc4n3)nn2)c1
GI50 [1]: 165 nM
TGI [1]: 5.62 µM
GI50 [2]: 2850 nM
TGI [2]: 14.5 µM
GI50 [3]: 2240 nM
TGI [3]: 9.18 µM
GI50 [4]: 2240 nM
TGI [4]: 9.57 µM
GI50 [5]: 3.51 µM
TGI [5]: 12 µM
GI50 [6]: 3480 nM
TGI [6]: 11.9 µM
GI50 [7]: 3570 nM
TGI [7]: 13.8 µM
GI50 [8]: 2880 nM
TGI [8]: 11 µM
GI50 [9]: 2340 nM
TGI [9]: 10.8 µM
GI50 [10]: 6.61 µM
TGI [10]: 15.7 µM

NS(=O)(=O)c1ccc(NCc2cnc3ccccc3n2)cc1
TGI [1]: > 100 µM
TGI [2]: > 100 µM
TGI [3]: > 100 µM
TGI [4]: > 100 µM
TGI [5]: > 100 µM
TGI [6]: > 100 µM
TGI [7]: > 100 µM
TGI [8]: > 100 µM
TGI [9]: > 100 µM
TGI [10]: > 100 µM

O=C(c1ccco1)c1c(C(F)(F)F)nc2ccc(C(F)(F)F)cc2[n+]1[O-]
GI50 [1]: 24500 nM
TGI [1]: > 83.2 µM
GI50 [2]: > 100000 nM
TGI [2]: > 100 µM
GI50 [3]: > 81600 nM
TGI [3]: > 100 µM
GI50 [4]: 24100 nM
TGI [4]: 68.6 µM
GI50 [5]: 46.9 µM
TGI [5]: > 100 µM
GI50 [6]: 41900 nM
TGI [6]: > 100 µM
GI50 [7]: > 100000 nM
TGI [7]: > 100 µM
GI50 [8]: 33200 nM
TGI [8]: > 100 µM
GI50 [9]: 35000 nM
TGI [9]: > 100 µM
GI50 [10]: 27.5 µM
TGI [10]: > 79.7 µM

C[C@]12CC[C@H]3[C@@H](CCC4=CC(=O)CC[C@@]43C)[C@@H]1CC[C@@H]2C(=O)COS(=O)(=O)c1ccc(Br)cc1
TGI [1]: 19.7 µM
TGI [2]: 21.9 µM
TGI [3]: 32.8 µM
TGI [4]: > 51.2 µM
TGI [5]: 35.2 µM
TGI [6]: 23 µM
TGI [7]: 12 µM
TGI [8]: 47.3 µM
TGI [9]: 38.1 µM
TGI [10]: 44.6 µM

NC(=S)N/N=C/c1ccc(N)cn1
TGI [1]: > 10 µM
TGI [2]: 5.44 µM
TGI [3]: > 10 µM
TGI [4]: > 10 µM
TGI [5]: > 10 µM
TGI [6]: > 10 µM
TGI [7]: > 10 µM
TGI [8]: > 10 µM
TGI [9]: > 10 µM
TGI [10]: > 10 µM

NC1CCC(Nc2nc(NCc3cc(Cl)ccc3O)c3ncn(C4CCCC4)c3n2)CC1 (stereo not given)
GI50 [1]: 295 nM
TGI [1]: 1.57 µM
GI50 [2]: 165 nM
TGI [2]: 0.388 µM
GI50 [3]: 149 nM
TGI [3]: 0.328 µM
GI50 [4]: 183 nM
TGI [4]: 0.778 µM
GI50 [5]: 0.242 µM
TGI [5]: 1.16 µM
GI50 [6]: 160 nM
TGI [6]: 0.592 µM
GI50 [7]: 202 nM
TGI [7]: 0.474 µM
GI50 [8]: 159 nM
TGI [8]: 0.542 µM
GI50 [9]: 494 nM
TGI [9]: 1.65 µM
GI50 [10]: 0.202 µM
TGI [10]: 1.01 µM

C/C(=N\NC(=S)N1CCN(C2CCCCCC2)CC1)c1ccccn1
GI50 [1]: 155 nM
TGI [1]: 3.5 µM
GI50 [2]: < 1 nM
TGI [3]: 2 µM
TGI [4]: 3.12 µM
TGI [5]: 3.01 µM
TGI [6]: 2.07 µM
GI50 [7]: < 1 nM
GI50 [8]: 3.02 nM
TGI [8]: 5.67 µM and 2.91 µM
TGI [9]: 2.96 µM
GI50 [10]: 3.17 µM
TGI [10]: 8.3 µM

CN(C)CCC=C1c2ccccc2C(C)(C)c2ccccc21
GI50 [1]: 8560 nM
TGI [1]: 23.6 µM
GI50 [2]: 12400 nM
TGI [2]: 27.1 µM
GI50 [3]: 4560 nM
TGI [3]: 19.5 µM
GI50 [4]: 12500 nM
TGI [4]: 26.6 µM
GI50 [5]: 15.9 µM
TGI [5]: 31.4 µM
GI50 [6]: 10400 nM
TGI [6]: 24.3 µM
GI50 [7]: 2000 nM
TGI [7]: 5.93 µM
GI50 [8]: 3920 nM
TGI [8]: 19.7 µM
GI50 [9]: 15500 nM
TGI [9]: 28.8 µM
GI50 [10]: 15.2 µM
TGI [10]: 28.5 µM

CNc1cc2nc3cc(NC)c(C)cc3cc2cc1C
GI50 [1]: 2880 nM
TGI [1]: 17.1 µM
GI50 [2]: 2580 nM
TGI [2]: 15.9 µM
GI50 [3]: 2480 nM
TGI [3]: 18.3 µM
GI50 [4]: 1030 nM
TGI [4]: 3.26 µM
GI50 [5]: 2.75 µM
TGI [5]: 20.2 µM
GI50 [6]: 1070 nM
TGI [6]: 15.7 µM
GI50 [7]: 1040 nM
TGI [7]: 5.12 µM
GI50 [8]: 1410 nM
TGI [8]: 13.2 µM
GI50 [9]: 695 nM
TGI [9]: 12.8 µM
GI50 [10]: 1.48 µM
TGI [10]: 16.6 µM

CC1=C(C(=O)Nc2ccc3[nH]ncc3c2)C(c2ccc(Cl)c(Cl)c2)CC(=O)N1 (stereo not given)
GI50 [1]: > 16000 nM
TGI [1]: > 25 µM
GI50 [2]: > 25000 nM
TGI [2]: > 25 µM
GI50 [3]: > 25000 nM
TGI [3]: > 25 µM
GI50 [4]: > 25000 nM
TGI [4]: > 25 µM
GI50 [5]: > 25 µM
TGI [5]: > 25 µM
GI50 [6]: > 20400 nM
TGI [6]: > 25 µM
GI50 [7]: > 25000 nM
TGI [7]: > 25 µM
GI50 [8]: > 19500 nM
TGI [8]: > 25 µM
GI50 [9]: > 25000 nM
TGI [9]: > 25 µM
GI50 [10]: > 25 µM
TGI [10]: > 25 µM

C=C1COC(O)(C2OCOC(C3CC(=O)NC(=O)C3)C2O)C1C (stereo not given)
GI50 [1]: 3.94 nM and 19 nM
GI50 [2]: 2.17 nM
TGI [2]: 0.0123 µM
GI50 [3]: 4.81 nM
TGI [3]: 0.037 µM
TGI [4]: 0.0181 µM and 0.0242 µM
GI50 [5]: 0.00331 µM and 0.017 µM
TGI [5]: 0.0499 µM and 0.0546 µM
GI50 [6]: 6.29 nM
TGI [6]: 0.0501 µM
GI50 [7]: 2.36 nM
TGI [7]: 0.0063 µM and 0.0127 µM and 0.0451 µM
GI50 [8]: 2.49 nM
TGI [8]: 0.018 µM and 0.0423 µM
GI50 [9]: 4.29 nM
TGI [9]: 0.052 µM
GI50 [10]: 0.0036 µM

C=C1CCC2C3(C)COC(c4c(OC)cccc4OC)OC3CCC2(C)C1C/C=C1/C(=O)OCC1O (stereo not given)
GI50 [1]: 1570 nM
TGI [1]: 3.48 µM
GI50 [2]: 1540 nM
TGI [2]: 4.9 µM
GI50 [3]: 2880 nM
TGI [3]: 10.8 µM
GI50 [4]: 2420 nM
TGI [4]: 6.73 µM
GI50 [5]: 3.39 µM
TGI [5]: 8.63 µM
GI50 [6]: 2660 nM
TGI [6]: 11.7 µM
GI50 [7]: 2010 nM
TGI [7]: 5.67 µM
GI50 [8]: 5280 nM
TGI [8]: 18.1 µM
GI50 [9]: 5710 nM
TGI [9]: 20.3 µM
GI50 [10]: 14.6 µM
TGI [10]: 29.9 µM

O=C(NNc1ccc(F)cc1)C1CCC(CNS(=O)(=O)c2ccc(Cl)c(Cl)c2)CC1 (stereo not given)
GI50 [1]: 2870 nM
TGI [1]: 28.1 µM
GI50 [2]: 1820 nM
TGI [2]: 9.57 µM
GI50 [3]: 2010 nM
TGI [3]: 35.1 µM
GI50 [4]: 9020 nM
TGI [4]: 47 µM
GI50 [5]: 7.7 µM
TGI [5]: 25.2 µM
GI50 [6]: 6300 nM
TGI [6]: 39.5 µM
GI50 [7]: 3360 nM
TGI [7]: 24.2 µM
GI50 [8]: 2160 nM
TGI [8]: 45.5 µM
GI50 [9]: 28900 nM
TGI [9]: > 50 µM
GI50 [10]: > 50 µM
TGI [10]: > 50 µM

CCCC[n+]1c(/C=C\c2c(OC)cc(OC)cc2OC)ccc2ccccc21
GI50 [1]: 2730 nM
TGI [1]: 11.5 µM
GI50 [2]: 241 nM
TGI [2]: 1.39 µM
GI50 [3]: 393 nM
TGI [3]: 1.87 µM
GI50 [4]: 1680 nM
TGI [4]: 13.6 µM
GI50 [5]: 2.26 µM
TGI [5]: 10.3 µM
GI50 [6]: 737 nM
TGI [6]: 5.71 µM
GI50 [7]: 279 nM
TGI [7]: 2.73 µM
GI50 [8]: 802 nM
TGI [8]: 3.25 µM
GI50 [9]: 1980 nM
TGI [9]: 8.83 µM
GI50 [10]: 0.604 µM
TGI [10]: 6.79 µM

Cc1cccc2nc3cccc(C(=O)NCCNCCNCCNC(=O)c4cccc5nc6cccc(C)c6nc45)c3nc12
GI50 [1]: 46.1 nM
TGI [1]: 23.2 µM
GI50 [2]: < 13.9 nM
TGI [2]: 1.12 µM
GI50 [3]: < 10 nM
TGI [3]: 1.41 µM
GI50 [4]: 168 nM
TGI [4]: 5.09 µM
GI50 [5]: 0.12 µM
TGI [5]: 11.1 µM
GI50 [6]: < 16.4 nM
TGI [6]: 4.63 µM
GI50 [7]: < 10 nM
TGI [7]: 0.769 µM
GI50 [8]: < 10 nM
TGI [8]: 1.11 µM
GI50 [9]: 93.3 nM
TGI [9]: 12.8 µM
GI50 [10]: < 0.01 µM
TGI [10]: 15.5 µM

C[N+](C)(CCCCCC[N+](C)(C)CCCN1C(=O)c2cc3ccccc3cc2C1=O)CCCN1C(=O)c2cc3ccccc3cc2C1=O
GI50 [1]: > 37500 nM
TGI [1]: > 37.5 µM
GI50 [2]: > 37500 nM
TGI [2]: > 37.5 µM
GI50 [3]: > 37500 nM
TGI [3]: > 37.5 µM
GI50 [4]: > 37500 nM
TGI [4]: > 37.5 µM
GI50 [5]: > 37.5 µM
TGI [5]: > 37.5 µM
GI50 [6]: > 37500 nM
TGI [6]: > 37.5 µM
GI50 [7]: > 37500 nM
TGI [7]: > 37.5 µM
GI50 [8]: > 37500 nM
TGI [8]: > 37.5 µM
GI50 [9]: > 37500 nM
TGI [9]: > 37.5 µM
GI50 [10]: > 37.5 µM
TGI [10]: > 37.5 µM
